Test results as given in ChEMBL document CHEMBL1201862, “PubChem BioAssay data set” (2004).
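Cultured in 96-well plates, cells were exposed to test compound for 48 hours across five concentrations. GI50: concentration for 50% inhibition of growth.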 The source made the active and inactive calls. Cut-off read from the data, not from the text of the source: active = GI50 up to about 1.1 µM and inactive = higher.

Tests used:
Experiment in all cases: NCI-60 cell line screen, 48 h
T47D = tested on: T47D
NCI-H460 = tested on: NCI-H460
SK-MEL-5 = tested on: SK-MEL-5
OVCAR-8 = tested on: OVCAR-8
OVCAR-3 = tested on: OVCAR-3
HOP-92 = tested on: HOP-92
NCI-H23 = tested on: NCI-H23
SN12C = tested on: SN12C
UACC-257 = tested on: UACC-257
Hs-578T = tested on: Hs-578T
HCT-116 = tested on: HCT-116
SK-OV-3 = tested on: SK-OV-3
SR = tested on: SR
KM12 = tested on: KM12
CCRF-CEM = tested on: CCRF-CEM
K562 = tested on: K562
SNB-75 = tested on: SNB-75
ACHN = tested on: ACHN
SF-539 = tested on: SF-539
A549 = tested on: A549

Row | SMILES | GI50 (T47D) | GI50 (NCI-H460) | GI50 (SK-MEL-5) | GI50 (OVCAR-8) | GI50 (OVCAR-3) | GI50 (HOP-92) | GI50 (NCI-H23) | GI50 (SN12C) | GI50 (UACC-257) | GI50 (Hs-578T) | GI50 (HCT-116) | GI50 (SK-OV-3) | GI50 (SR) | GI50 (KM12) | GI50 (CCRF-CEM) | GI50 (K562) | GI50 (SNB-75) | GI50 (ACHN) | GI50 (SF-539) | GI50 (A549)
1 | COC(=O)c1sc(=S)sc1SCc1cccc(CSc2sc(=S)sc2C(=O)OC)c1 | > 100 µM (inactive) | > 100 µM (inactive) | > 100 µM (inactive) | > 100 µM (inactive) | 63.4 µM (inactive) | 29.4 µM (inactive) | 27.9 µM (inactive) | > 100 µM (inactive) | > 100 µM (inactive) | 36.3 µM (inactive) | 90.6 µM (inactive) | 19.6 µM (inactive) | > 100 µM (inactive) | > 100 µM (inactive) | > 100 µM (inactive) | 79.8 µM (inactive) | 11.6 µM (inactive) | 28.8 µM (inactive) | 24.6 µM (inactive) | –
2 | C/C(=N\NS(=O)(=O)c1ccc(C)cc1)c1ccccn1 | 76.9 µM (inactive) | 49.7 µM (inactive) | 33.4 µM (inactive) | 50.8 µM (inactive) | 50.7 µM (inactive) | > 100 µM (inactive) | 54.1 µM (inactive) | – | 81.8 µM (inactive) | 87.3 µM (inactive) | 40.7 µM (inactive) | 55.3 µM (inactive) | 65 µM (inactive) | 43.7 µM (inactive) | 18.5 µM (inactive) | 83.8 µM (inactive) | > 100 µM (inactive) | 26.1 µM (inactive) | 40.8 µM (inactive) | 53.3 µM (inactive)
3 | CSc1ncc2c(C#N)c3[nH]c4ccccc4n3c(=O)c2n1 | 22.9 µM (inactive) | 13.3 µM (inactive) | 10.6 µM (inactive) | 7.85 µM (inactive) | 6.7 µM (inactive) | 4.2 µM (inactive) | 14.8 µM (inactive) | 16 µM (inactive) | 30.7 µM (inactive) | 30.6 µM (inactive) | 13.1 µM (inactive) | 29.4 µM (inactive) | 9.89 µM (inactive) | 8.63 µM (inactive) | 4.92 µM (inactive) | 5.18 µM (inactive) | 44.7 µM (inactive) | 33.1 µM (inactive) | 17.3 µM (inactive) | –
4 | COc1cccc2c(=O)c3c(n(C)c12)OC(C(C)C)C3 (stereo unspecified) | 87.3 µM (inactive) | 52.1 µM (inactive) | 56.1 µM (inactive) | > 100 µM (inactive) | > 100 µM (inactive) | > 100 µM (inactive) | > 100 µM (inactive) | > 100 µM (inactive) | > 100 µM (inactive) | > 100 µM (inactive) | > 100 µM (inactive) | > 100 µM (inactive) | 30.8 µM (inactive) | 99.5 µM (inactive) | > 100 µM (inactive) | 27.5 µM (inactive) | > 100 µM (inactive) | 63 µM (inactive) | > 100 µM (inactive) | > 100 µM (inactive)
5 | C[C@]12CC[C@@H]3c4cc(C=O)c(OCc5ccccc5)cc4CC[C@H]3[C@@H]1CCC2OCc1ccccc1 (stereo partly specified) | > 100 µM (inactive) | > 100 µM (inactive) | > 100 µM (inactive) | > 100 µM (inactive) | > 100 µM (inactive) | > 100 µM (inactive) | 89.9 µM (inactive) | > 100 µM (inactive) | 58.9 µM (inactive) | > 100 µM (inactive) | > 100 µM (inactive) | > 100 µM (inactive) | 73.1 µM (inactive) | > 100 µM (inactive) | > 100 µM (inactive) | > 100 µM (inactive) | > 100 µM (inactive) | 95.9 µM (inactive) | > 100 µM (inactive) | 60.7 µM (inactive)
6 | Cc1cccc(-c2cc(O)c3ccc(C)nc3n2)c1 | 0.249 µM (active) | 0.334 µM (active) | 0.0895 µM (active) | 0.8 µM (active) | 0.188 µM (active) | 1.14 µM (inactive) | 0.643 µM (active) | 0.668 µM (active) | – | 0.337 µM (active) | 0.297 µM (active) | 0.656 µM (active) | 0.0491 µM (active) | 0.12 µM (active) | 0.354 µM (active) | 0.0993 µM (active) | 0.233 µM (active) | 0.711 µM (active) | 0.338 µM (active) | 0.508 µM (active)
